Legend:
Experiment in all cases: relative viability (nuclei count vs DMSO), 5 days (fraction); higher = more cells survive
Alisertib + Navitoclax = compound: COc1cc(Nc2ncc3c(n2)-c2ccc(Cl)cc2C(c2c(F)cccc2OC)=NC3)ccc1C(=O)O [Alisertib] + CC1(C)CCC(c2ccc(Cl)cc2)=C(CN2CCN(c3ccc(C(=O)NS(=O)(=O)c4ccc(N[C@H](CCN5CCOCC5)CSc5ccccc5)c(S(=O)(=O)C(F)(F)F)c4)cc3)CC2)C1 [Navitoclax] (partner 0.5 µM)
Method in brief: (§1)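 Lung cancer cell lines were seeded in 1536-well plates and dosed by pin tool the next day, with either a single drug or a fixed anchor-drug dose combined with five library-drug doses (not always all listed) spaced in √10 steps. Five days later, one step fixed the cells and stained their nuclei (final 0.05% Triton X-100, 1% formaldehyde, 1 ug/ml Hoechst), and nuclei were counted on 4× images. Relative viability is the nuclei count in treated wells divided by the count in vehicle wells, and each value is the median of duplicate plates.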

Alisertib + Crizotinib = compound: COc1cc(Nc2ncc3c(n2)-c2ccc(Cl)cc2C(c2c(F)cccc2OC)=NC3)ccc1C(=O)O [Alisertib] + C[C@@H](Oc1cc(-c2cnn(C3CCNCC3)c2)cnc1N)c1c(Cl)ccc(F)c1Cl [Crizotinib] (partner 1 µM)
Method in brief: as §1

Alisertib + Dasatinib = compound: COc1cc(Nc2ncc3c(n2)-c2ccc(Cl)cc2C(c2c(F)cccc2OC)=NC3)ccc1C(=O)O [Alisertib] + Cc1nc(Nc2ncc(C(=O)Nc3c(C)cccc3Cl)s2)cc(N2CCN(CCO)CC2)n1 [Dasatinib] (partner 0.075 µM)
Method in brief: as §1

Alisertib + Vorinostat = compound: COc1cc(Nc2ncc3c(n2)-c2ccc(Cl)cc2C(c2c(F)cccc2OC)=NC3)ccc1C(=O)O [Alisertib] + O=C(CCCCCCC(=O)Nc1ccccc1)NO [Vorinostat] (partner 1 µM)
Method in brief: as §1

Row | Cell Line | relative viability (Alisertib + Navitoclax; first compound 0.005 µM) | relative viability (Alisertib + Navitoclax; first compound 0.01581 µM) | relative viability (Alisertib + Navitoclax; first compound 0.05 µM) | relative viability (Alisertib + Navitoclax; first compound 0.1581 µM) | relative viability (Alisertib + Navitoclax; first compound 0.5 µM) | relative viability (Alisertib + Crizotinib; first compound 0.005 µM) | relative viability (Alisertib + Crizotinib; first compound 0.01581 µM) | relative viability (Alisertib + Crizotinib; first compound 0.05 µM) | relative viability (Alisertib + Crizotinib; first compound 0.1581 µM) | relative viability (Alisertib + Crizotinib; first compound 0.5 µM) | relative viability (Alisertib + Dasatinib; first compound 0.005 µM) | relative viability (Alisertib + Dasatinib; first compound 0.01581 µM) | relative viability (Alisertib + Dasatinib; first compound 0.05 µM) | relative viability (Alisertib + Dasatinib; first compound 0.1581 µM) | relative viability (Alisertib + Dasatinib; first compound 0.5 µM) | relative viability (Alisertib + Vorinostat; first compound 0.005 µM) | relative viability (Alisertib + Vorinostat; first compound 0.01581 µM) | relative viability (Alisertib + Vorinostat; first compound 0.05 µM) | relative viability (Alisertib + Vorinostat; first compound 0.1581 µM) | relative viability (Alisertib + Vorinostat; first compound 0.5 µM)
1 | HOP-62 | 0.966 | 0.919 | 0.214 | 0.139 | 0.0669 | 0.833 | 0.743 | 0.232 | 0.212 | 0.104 | 0.537 | 0.688 | 0.433 | 0.185 | 0.154 | 0.497 | 0.443 | 0.174 | 0.102 | 0.138
2 | SK-MES-1 | 1.09 | 0.892 | 0.315 | 0.139 | 0.0931 | 0.914 | 0.801 | 0.673 | 0.25 | 0.18 | 0.354 | 0.466 | 0.253 | 0.125 | 0.074 | 0.954 | 0.976 | 0.365 | 0.206 | 0.216
3 | NCI-H1666 | 0.94 | 0.779 | 0.435 | 0.281 | 0.291 | 0.934 | 0.729 | 0.474 | 0.349 | 0.363 | 0.693 | 0.695 | 0.527 | 0.336 | 0.323 | 1.01 | 0.995 | 0.846 | 0.617 | 0.555
4 | NCI-H1355 | 0.884 | 0.923 | 0.633 | 0.205 | 0.16 | 1.08 | 0.906 | 0.737 | 0.215 | 0.186 | 0.691 | 0.702 | 0.664 | 0.177 | 0.184 | 0.589 | 0.522 | 0.525 | 0.204 | 0.177
5 | HCC-827 | 1.01 | 1 | 0.545 | 0.324 | 0.249 | 0.898 | 0.802 | 0.374 | 0.395 | 0.254 | 0.279 | 0.409 | 0.246 | 0.194 | 0.236 | 0.779 | 0.717 | 0.753 | 0.29 | 0.274
6 | HARA | 1.15 | 1.14 | 0.544 | 0.281 | 0.0564 | 1.05 | 0.796 | 0.277 | 0.169 | 0.135 | 0.265 | 0.283 | 0.279 | 0.125 | 0.0962 | 0.44 | 0.131 | 0.0659 | 0.0632 | 0.0823
7 | HCC-366 | 0.976 | 1.04 | 0.094 | 0.0103 | 0.019 | 0.686 | 0.456 | 0.0307 | 0.0254 | 0.0216 | 0.674 | 0.353 | 0.0282 | 0.0222 | 0.0468 | 0.171 | 0.0448 | 0.0208 | 0.0312 | 0.0381
8 | NCI-H322M | 1.16 | 1.3 | 1.13 | 0.576 | 0.35 | 0.809 | 0.777 | 0.431 | 0.498 | 0.313 | 0.233 | 0.23 | 0.26 | 0.184 | 0.206 | 0.806 | 0.864 | 0.772 | 0.502 | 0.514
9 | NCI-H2347 | 0.742 | 0.695 | 0.459 | 0.42 | 0.329 | 0.783 | 0.526 | 0.61 | 0.454 | 0.468 | 0.263 | 0.339 | 0.275 | 0.268 | 0.222 | 0.522 | 0.569 | 0.518 | 0.407 | 0.343
10 | NCI-H1975 | 1.14 | 1.01 | 0.503 | 0.344 | 0.175 | 0.945 | 0.728 | 0.301 | 0.27 | 0.193 | 0.298 | 0.333 | 0.286 | 0.153 | 0.109 | 0.657 | 0.688 | 0.284 | 0.214 | 0.201
11 | NCI-H596 | – | 0.906 | 1.07 | 0.808 | 0.199 | – | 0.882 | 0.882 | 0.719 | 0.504 | 0.593 | 0.688 | 0.626 | 0.53 | 0.342 | 0.514 | 0.655 | 0.616 | 0.488 | 0.311
12 | A-427 | 0.897 | 0.907 | 0.26 | 0.167 | 0.158 | 0.903 | 0.839 | 0.136 | 0.146 | 0.174 | 0.645 | 0.565 | 0.291 | 0.139 | 0.128 | 0.603 | 0.41 | 0.313 | 0.27 | 0.262
13 | LCLC-97TM1 | 0.523 | 0.353 | 0.121 | 0.116 | 0.115 | 0.334 | 0.298 | 0.138 | 0.128 | 0.152 | 0.773 | 0.712 | 0.709 | 0.192 | 0.173 | 0.524 | 0.515 | 0.135 | 0.0952 | 0.0792
14 | HCC-15 | 0.657 | 0.517 | 0.27 | 0.12 | 0.103 | 0.808 | 0.655 | 0.219 | 0.115 | 0.0945 | 0.45 | 0.332 | 0.232 | 0.104 | 0.102 | 0.777 | 0.588 | 0.201 | 0.167 | 0.134
15 | UMC-11 | 0.241 | 0.163 | 0.121 | 0.115 | 0.125 | 0.515 | 0.285 | 0.117 | 0.103 | 0.0832 | 0.32 | 0.184 | 0.157 | 0.144 | 0.127 | 0.262 | 0.169 | 0.113 | 0.118 | 0.161
16 | NCI-H1651 | 1.01 | 0.832 | 0.517 | 0.14 | 0.2 | 0.898 | 0.807 | 0.41 | 0.204 | 0.256 | 0.357 | 0.293 | 0.204 | 0.151 | 0.163 | 0.517 | 0.461 | 0.325 | 0.118 | 0.135
